Assay results from patent EP0261503B1, “Heterocyclic amido derivatives of substituted benzoic acids and therapeutic compositions which contain them as active principle” (VALEAS S.p.A. INDUSTRIA CHIMICA E FARMACEUTICA, priority 1986, dated 1988).

Tests used:
[1] = system: passive cutaneous anaphylaxis; test: passive cutaneous anaphylaxis test (PCA) in the rat, intraperitoneal administration; type: in vivo; conditions: ip, PCA test on the rat, 15 minutes before antigen challenge, versus control group
Description: The products of general formula (I) listed in Table 1 were subjected to a first pharmacological screening to evaluate their activity after oral administration in the passive cutaneous anaphylaxis test (PCA) in the rat in accordance with Goose J. and Blair A.M.J.N. (Immunology, 16, 749-760, 1969). Serum, obtained from rats actively sensitized with ovalbumin and suitably diluted, was injected intradermally into the shave back of male Sprague Dawley rats, and after 24 hours these were treated intravenously with a solution of ovalbumin and Evans blue. Thirty minutes after the antigen challenge, the animals were sacrificed and the diameter and intensity of the blue halo which has formed in the intradermal injection site was measured. Some of the compounds according to the invention were subjected to a further passive cutaneous anaphylaxis test evaluation to determine their efficiency after intraperitoneal administration at a dose of 100 mg/kg, fifteen minutes before the challenge. […]

[2] = system: passive cutaneous anaphylaxis; test: passive cutaneous anaphylaxis test (PCA) in the rat, oral administration; type: in vivo; conditions: PCA test on the rat, oral administration 30 minutes before antigen challenge; for Activity: relative to Tranilast = 1
Description: The products of general formula (I) listed in Table 1 were subjected to a first pharmacological screening to evaluate their activity after oral administration in the passive cutaneous anaphylaxis test (PCA) in the rat in accordance with Goose J. and Blair A.M.J.N. (Immunology, 16, 749-760, 1969). Serum, obtained from rats actively sensitized with ovalbumin and suitably diluted, was injected intradermally into the shave back of male Sprague Dawley rats, and after 24 hours these were treated intravenously with a solution of ovalbumin and Evans blue. Thirty minutes after the antigen challenge, the animals were sacrificed and the diameter and intensity of the blue halo which has formed in the intradermal injection site was measured. The compounds according to the invention, and also tranilast (N-3ʹ, 4ʹ-dimethoxycinnamoyl) anthranilic acid) used as reference standard, were dissolved-suspended in suitable solvents (carboxymethylcellulose, gum arabic, DMSO etc.) and administered orally thirty minutes before the antigen challenge. Table 2 lists the ED₅₀ values and the relative confidence limits at p = 0.05.

CCOC(=O)c1cc(C)sc1NC(=O)c1cccc(OC)c1[N+](=O)[O-] [Compound 1, 3-thiophene carboxylic acid-2-[(2-nitro-3-methoxybenzoyl)amino]-5-methyl ethyl ester]
inhibition at 100 mg/kg [1]: 59.4% | ED₅₀ [2]: 0.21 mmoles/kg/os | Activity [2]: 1.5

CCOC(=O)c1cc(C)sc1NC(=O)c1cccc(OC)c1N [Compound 7, 3-THIOPHENE CARBOXYLIC ACID, 2[(2-AMINO-3-METHOXY BENZOYL)AMINO]-5-METHYL-ETHYL ESTER]
inhibition at 100 mg/kg [1]: 31.9% | Activity [2]: 450.7

CCOC(=O)c1cc(C)sc1NC(=O)c1cccc(OC)c1NC(C)=O [Compound 15, 3-THIOPHENE CARBOXYLIC ACID, 2-[(2-ACETYL AMINO-3-METHOXY BENZOYL)AMINO]-5-METHYL, ETHYL ESTER]
ED₅₀ [2]: 0.013 mmoles/kg/os | Activity [2]: 24.6

COc1cccc(C(=O)Nc2sc(C)cc2C(=O)O)c1N [Compound 16, 3-THIOPHENE CARBOXYLIC ACID, 2-[(2-AMINO-3-METHOXY BENZOYL)AMINO]-5-METHYL]
Activity [2]: 41.0

CCOC(=O)C(=O)Nc1c(OC)cccc1C(=O)Nc1sc(C)cc1C(=O)OCC [Compound 18, 3-THIOPHENE CARBOXYLIC ACID, 2-[[2-AMINO(OXOACETIC ACID ETHYL ESTER)-3-METHOXY BENZOYL] AMINO]-5-METHYL, ETHYL ESTER]
Activity [2]: 114.3

CCOC(=O)Cc1csc(NC(=O)c2cccc(OC)c2N)n1 [Compound 25, 4-THIAZOLE ACETIC ACID, 2-[(2-AMINO-3-METHOXY BENZOYL)AMINO], ETHYL ESTER]
inhibition at 100 mg/kg [1]: 43.1% | Activity [2]: 64.0

CCOC(=O)c1cc(C)sc1-n1c(=O)[nH]c2c(OC)cccc2c1=O [Compound 32, 8-METHOXY-3-[(3-ETHOXY CARBONYL-5-METHYL)-THIENYL]-2,4 QUINAZOLONE]
inhibition at 100 mg/kg [1]: 52.7% | ED₅₀ [2]: 0.08 mmoles/kg/os | Activity [2]: 4.0

CCOC(=O)C(O)c1csc(-n2c(=O)[nH]c3c(OC)cccc3c2=O)n1 (stereo not drawn) [Compound 36, 8-METHOXY-3-[[5-(α-HYDROXY ETHYL ACETATE)]-THIAZENYL]-2,4 QUINAZOLONE]
inhibition at 100 mg/kg [1]: 40.7% | ED₅₀ [2]: 0.054 mmoles/kg/os | Activity [2]: 5.9

CCOC(=O)Cc1csc(NC(=O)c2cc(C)ccc2N)n1 [Compound 37]
inhibition at 100 mg/kg [1]: 88.4% | Activity [2]: 213.3

COc1ccc(C=CC(=O)Nc2ccccc2C(=O)O)cc1OC [Tranilast, N-(3ʹ,4ʹ-dimethoxycinnamoyl) anthranilic acid, reference compound]
ED₅₀ [2]: 0.32 mmoles/kg/os | Activity [2]: 1
